{"source": "patent US5955508A", "about": "“Method for the enhancement of lymphocyte activity against opportunistic microbial pathogens” (priority 1996, dated 1999)", "key": {"[1]": {"tested_on": "IL-2 in CD8+ T cells", "test": "IL-2 production by CD8+ T cells, flow cytometry", "type": "cell-based, human", "settings": "for % Positive Cells (IL-2 immunopositive), d-FEN / IL-2 Titer, d-FEN: Mean ± SEM", "text": "(§1) The T lymphocytes analyzed were obtained from 20 HIV+ patients (9 females and 11 males, 25-48 years of age). The patients were diagnosed as being HIV+ within the past 0.5-9 years, and 15 are being treated with antiviral drugs. The subjects' study identification number (indicates the order in which bloods were drawn), CD4+ and CD8+ counts (determined March, 1996, as part of the present study), age, sex, date of diagnosis, and pharmacotherapy are provided in Table 1.\n(§2) The experimental protocol for this project is illustrated in Table A. Note that the cultures were exposed to two doses (5 and 50 ng/ml) of d-FEN in the mitogenesis assays, whereas only one dose (50 ng/ml) was used in the antifungal and cytokine release assays.\nCytokine Profiles. Peripheral mononuclear cells were isolated by the Ficoll-Hypaque method and washed twice with RPMI-1640 medium. Cell suspensions were made at 1×10^6 /ml and the cells activated with interleukin-2 (IL-2) for 18 h or 4 days at 37° C. under 5% CO^2 +95% air. Monensin (1 nM) then was added to the culture to block secretion of cytokines, and the cultures allowed to continue for another 3 h. The cells were washed twice with PBS+1% fetal calf serum (FCS) with 0.1% saponin+0.1% sodium azide, then washed once with PBS-1% FCS and stained with anti-cytokine MAb-FL conjugate for 30 min. Following two washes, the cells were analyzed by flow cytometry for production of IL-2, IFN-γ and TNF-α. The MAbs-FL conjugates were obtained from Pharmingen (San Diego, Calif.). Potential effects of on cytokine production were evaluated (a) as increases in the percentage of a T cell subset which produce the respective cytokine; and, (b) as increases in the amount of cytokine produced by each subset. The latter were analyzed as a shift of the cytokine histograms.\nThe data were analyzed by a one- or two-way analysis of variance (ANOVA) with repeated measures where appropriate ([…] version 1; Jandel, San Rafael, Calif.). Significant main effects were subjected to post hoc analysis using the Student-Newman Keuls All Pairwise Multiple Comparisons test or the Mann-Whitney U test."}, "[2]": {"tested_on": "Candida albicans", "test": "Lymphocyte mediated antifungal activity against Candida albicans (growth inhibition), lymphocytes from HIV+ patients", "type": "cell-based", "settings": "for mean change in antifungal activity: 50 ng/ml d-FEN vs no d-FEN; for Antifungal Units, d-FEN: one line per patient and Mean + SEM", "text": "as §1\nThe patients fell into one of three groups (Groups A, B and C) based on their CD4+ cell counts (the number of T helper cells/μL blood): 8 of the HIV+ patients had normal (or above normal) CD4+ levels (normal range 550-1500/μL); 4 had levels between 200-499/μL; and, 7 had CD4+ counts equal to or below 200/μL. This latter group of patients by definition have AIDS (see Table 41-3 from K. J. Ryan (Ed.), Sherris Medical Microbiology, Third Edition, Appleton & Lange:Norwalk, Conn., 1994, p. 547). These patients, moreover, have had recurrent candidiasis and other opportunistic infections which have become increasingly difficult to manage. All of the patients' CD8+ cell (cytotoxic T lymphocytes) counts were within or above normal range (300-1000/μL). We were unable to obtain enough lymphocytes from one patient (#4) to analyze their antifungal activity.\nas §2\nIsolation of Peripheral Blood Mononuclear Cells. Forty ml of venous blood were aseptically drawn into sterile 10 ml tubes containing 20 U/ml preservative free heparin, diluted with an equal volume of Hank's Balanced Salt Solution (HBSS), layered over Lymphocyte Separation Medium (LSM, Bionetics, Kensington, Md.), and centrifuged at 1,000×g for 30 min. After centrifugation, the mononuclear cell layer was recovered from the interface and washed twice in HBSS prior to further manipulation and then enumerated microscopically.\nLymphocyte Mediated Antifungal Activity Against Candida albicans: Fungal Culture. C. albicans cultures were stored at 25° C. on Sabouraud's dextrose agar (SDA) (Becton Dickinson and Co., Cockeysville, Md.). Cells used for experimentation were cultured overnight at 37° C. on SDA, collected as isolated colonies, and washed once in HBSS. Yeast cultures were enumerated microscopically. C. albicans were inoculated into RPMI 1640 medium. C. albicans hyphal forms were obtained by incubation at 37° C. with 5% CO2 in RPMI 1640. Inoculum of 2×10^5 yeast cells/ml yield approximately 100% hyphal fragments when incubated for 2 h at 37° C.\nActivation of Lymphocytes. Human peripheral blood lymphocytes were placed in culture medium containing 5×10^-5 2-mercaptoethanol (2-ME) at a concentration of 2.0×10^6 cells/ml with d-FEN (50 ng/ml was added on the second day of culture) and 1,500 U/ml IL-2 (Hoffman-La Roche Inc., Nutley, N.J.) in Falcon, Multiwell plates (Becton Dickinson, Lincoln Park, N.J.) for 3 and 4 days. The cells were harvested following incubation at 37° C., overlaid onto LSM and centrifuged at 1,000×g for 20 min. The cells at the interface were washed twice with HBSS prior to assessment of functional activity.\nMeasurement of the Inhibition of C. albicans Growth. Fungal cells used for experimentation were collected from isolated, overnight colonies on SDA, and washed once in HBSS. Yeast were resuspended to 2×10^5 /ml in RPMI 1640 and 5×10^3 yeast placed in individual wells of 96 well flat bottom plates (Corning Glass Works, #25861, Corning, N.Y.). […]"}, "[3]": {"settings": "50 ng/ml, CD8+ T cells, non-AIDS HIV+"}}, "note": "Values joined by “and” are separate entries in the source; they are usually repeats but may differ in a detail not shown here. Identical values can stand only once."}
{"smiles": "CCN[C@@H](C)Cc1cccc(C(F)(F)F)c1", "note": "[d-FEN]", "values": [{"measurement": "% Positive Cells (IL-2 immunopositive), d-FEN", "setting": "[1]; 50 ng/ml, CD8+ T cells, AIDS", "value": "18 ± 4", "unit": "%"}, {"measurement": "IL-2 Titer, d-FEN", "setting": "[1]; 50 ng/ml, CD8+ T cells, AIDS", "value": "147 ± 34 geometric mean channel fluorescence"}, {"measurement": "effect on IL-2 titer in words", "setting": "[1]; 50 ng/ml, CD8+ T cells, non-AIDS", "value": "not from the non-AIDS patients"}, {"measurement": "% Positive Cells (IL-2 immunopositive), d-FEN", "setting": "[1]; [3]", "value": "36 ± 3", "unit": "%"}, {"measurement": "IL-2 Titer, d-FEN", "setting": "[1]; [3]", "value": "220 ± 28 geometric mean channel fluorescence"}, {"measurement": "activation at 0.05 µg/mL", "setting": "[1]; Homo sapiens, T-cell, read-out: percent increase of IL-2 titer over VEH", "value": 40, "unit": "%"}, {"measurement": "mean change in antifungal activity", "setting": "[2]; Group B", "value": -13, "unit": "%"}, {"measurement": "mean change in antifungal activity", "setting": "[2]; Group C (AIDS)", "value": "+100%"}, {"measurement": "patients showing increased antifungal activity", "setting": "[2]; 50 ng/ml d-FEN, Group A", "value": "7 of the 8"}, {"measurement": "Antifungal Units, d-FEN", "setting": "[2]; 50 ng/ml d-FEN, Group A (normal CD4+ HIV+ patients)", "value": "62 Antifungal Units and 84 Antifungal Units and 82 Antifungal Units and 144 Antifungal Units and 31 Antifungal Units and 60 Antifungal Units and 236 Antifungal Units and 95 ± 23 Antifungal Units"}, {"measurement": "antifungal activity response in words", "setting": "[2]; 50 ng/ml d-FEN, Group B", "value": "mixed response"}, {"measurement": "Antifungal Units, d-FEN", "setting": "[2]; 50 ng/ml d-FEN, Group B (CD4+ 200-499/μL)", "value": "16 Antifungal Units and 164 Antifungal Units and 120 Antifungal Units and 75 Antifungal Units and 94 ± 32 Antifungal Units"}, {"measurement": "patients showing increased antifungal activity", "setting": "[2]; 50 ng/ml d-FEN, Group C (AIDS)", "value": "all 7 of the AIDS patients (Group C) evidenced increased"}, {"measurement": "Antifungal Units, d-FEN", "setting": "[2]; 50 ng/ml d-FEN, Group C (AIDS)", "value": "130 Antifungal Units and 321 Antifungal Units and 164 Antifungal Units and 355 Antifungal Units and 307 Antifungal Units and 314 Antifungal Units and 394 Antifungal Units and 284 ± 37 Antifungal Units"}, {"measurement": "antifungal activity of Group C vs other two groups", "setting": "[2]; 50 ng/ml d-FEN, one-way ANOVA p<0.001", "value": "significantly greater in the presence of d-FEN"}]}
